From patent publication US20230309565A1 (priority 2022, published 2023)
≈ marks a conversion by molar mass, not a printed value.

Key:
[1] = system: Liberibacter crescens BT-1; experiment: microbe, parasite or virus in culture; format: cell-based; settings: for inhibition of growth of L. crescens BT1: BM7 medium, 28° C.
[2] = system: Candidatus Liberibacter asiaticus (CLas); format: in vivo, Duncan grapefruit
[3] = methanol and chloroform
CsPR2 = format: in vivo, citrus; settings: foliar spray 10 ppm and 20 ppm; midribs at 0d, 2d, 2w; relative to CsUbi
[4] = format: physicochemical; settings: room temperature; 40-h culture of 0617-T307 in YME media
CsPR1 = format: in vivo, citrus; settings: foliar spray 10 ppm and 20 ppm; midribs at 0d, 2d, 2w; relative to CsUbi

| Structure (SMILES) | inhibition of growth of L. crescens ([1]; 2.5 mg/L, 16 days) | inhibition of growth of L. crescens ([1]; 1 mg/L) | inhibition of growth of L. crescens BT1 ([1]; 10 mg/L) | inhibition of growth of L. crescens BT1 ([1]; 20 mg/L) | inhibition of growth of L. crescens BT1 ([1]; 40 mg/L) | MIC ([1]; Liberibacter crescens, BT1, read-out: minimal inhibitory concentration (MIC)) [µg/mL] | suppression of CLas ([2]; 10 mg/L sprayed on leaves of citrus Huanglongbing positive trees) | CLas titer in citrus leaves ([2]; RAA 10 mg/L foliar spray, HLB-positive Duncan grapefruit, untreated control 7.4×10^5) | solubility [3] | expression of CsPR2 (CsPR2) | present and stable in the culture [4] | expression of CsPR1 (CsPR1) |
| --- | --- | --- | --- | --- | --- | --- | --- | --- | --- | --- | --- | --- |
| [H]/N=C(/N)N[C@H]1[C@H](O)[C@@H](O)[C@H](O[C@@H]2O[C@@H](C)[C@](O)(C=O)[C@H]2O[C@@H]2O[C@@H](CO)[C@H](O)[C@@H](O)[C@@H]2NC)[C@@H](N/C(N)=N\[H])[C@@H]1O [streptomycin, reference compound] | comparable |  |  |  |  |  |  |  |  |  |  |  |
| CSC1=C(C)C(=O)C(=O)NC1=O [RejuAgro A] | inhibition of growth | partial inhibition of growth | inhibition of growth | inhibition of growth | inhibition of growth | 2.5 (≈ 13.5 µM) | effectively suppress | 2.4×10^5 genome equivalent/g tissue DNA | can be dissolved in methanol and chloroform | triggered the expressions | at least 4 weeks | triggered the expressions |
